Results as given in ChEMBL document CHEMBL1201862, “PubChem BioAssay data set” (2004).
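Each compound was tested at five concentrations against cells in 96-well plates for 48 hours. At the GI50, growth is halved.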 Calls of active or inactive are those of the source. Rule as the data show it: active = GI50 up to about 1.1 µM and inactive = higher.

Key:
Assay in all cases: growth of human tumour cells (NCI), 48 h
CAKI-1 = tested on: CAKI-1
HL-60 = tested on: HL-60
HOP-18 = tested on: HOP-18
HT-29 = tested on: HT-29
LOX IMVI = tested on: LOX IMVI
M19-MEL = tested on: M19-MEL
MOLT-4 = tested on: MOLT-4
NCI-H226 = tested on: NCI-H226
OVCAR-3 = tested on: OVCAR-3
SF-268 = tested on: SF-268
SK-OV-3 = tested on: SK-OV-3
SNB-19 = tested on: SNB-19
SNB-75 = tested on: SNB-75
SNB-78 = tested on: SNB-78
SW-620 = tested on: SW-620
U-251 = tested on: U-251
RXF 393 = tested on: RXF 393
MDA-MB-231 = tested on: MDA-MB-231
MDA-N = tested on: MDA-N
T47D = tested on: T47D

Measured: GI50

O=C(NC(Cc1ccc(I)cc1)C(=O)O)c1ccc(Cl)cc1 (stereo unspecified)
inactive: CAKI-1 > 100 µM | HL-60 > 100 µM | HOP-18 > 100 µM | HT-29 > 100 µM | LOX IMVI > 100 µM | M19-MEL > 100 µM | MOLT-4 > 74.3 µM | NCI-H226 > 100 µM | OVCAR-3 > 88.5 µM | SF-268 > 100 µM | SK-OV-3 > 100 µM | SNB-19 > 100 µM | SNB-75 87.3 µM | SNB-78 > 100 µM | SW-620 > 100 µM | U-251 > 100 µM

Cc1ccc(C)c(NC(=O)C(=O)C(C(=O)c2ccc3ccccc3c2)C2OC(=O)c3ccccc32)c1 (stereo unspecified)
inactive: CAKI-1 20 µM | HL-60 17.1 µM | HT-29 28.1 µM | LOX IMVI 13.6 µM | M19-MEL 12.7 µM | MOLT-4 5.25 µM | NCI-H226 2.44 µM | RXF 393 2.97 µM | SF-268 3.57 µM | SK-OV-3 14.3 µM | SNB-19 8 µM | SNB-75 12.4 µM | SNB-78 17.9 µM | SW-620 11.2 µM | U-251 4.19 µM

OC1CCSc2ccccc21 (stereo unspecified)
inactive: CAKI-1 > 100 µM | HOP-18 > 100 µM | HT-29 > 100 µM | LOX IMVI > 100 µM | M19-MEL > 100 µM | MOLT-4 > 100 µM | NCI-H226 > 100 µM | OVCAR-3 > 100 µM | RXF 393 > 100 µM | SF-268 > 100 µM | SK-OV-3 > 100 µM | SNB-19 > 100 µM | SW-620 > 100 µM | U-251 > 100 µM

Cc1cn(C2CCN(CC3COC(C)(C)O3)O2)c(=O)[nH]c1=O (stereo unspecified)
inactive: CAKI-1 > 100 µM | HL-60 > 100 µM | HT-29 > 100 µM | LOX IMVI > 100 µM | MDA-MB-231 > 100 µM | MDA-N > 100 µM | MOLT-4 > 100 µM | NCI-H226 > 100 µM | OVCAR-3 > 100 µM | RXF 393 > 100 µM | SF-268 > 100 µM | SK-OV-3 > 100 µM | SNB-75 > 100 µM | SW-620 > 100 µM | T47D > 100 µM | U-251 > 100 µM

N#CC1(C#N)N[C@@H](c2ccsc2)[C@H]2C(=O)N(c3ccccc3)C(=O)[C@H]21
inactive: CAKI-1 43 µM | HL-60 21.4 µM | HT-29 85.5 µM | LOX IMVI 37.3 µM | MDA-MB-231 61 µM | MDA-N 38.3 µM | MOLT-4 36.7 µM | NCI-H226 > 100 µM | OVCAR-3 > 100 µM | RXF 393 70.3 µM | SF-268 84.5 µM | SK-OV-3 > 100 µM | SNB-75 > 100 µM | SW-620 > 100 µM | T47D 63.2 µM | U-251 77.6 µM

C[n+]1c2ccccc2n2c3ccccc3c(NCCCn3ccnc3)c(C#N)c21
inactive: CAKI-1 10.5 µM | HL-60 3.94 µM | HT-29 3.31 µM | LOX IMVI 1.49 µM | MDA-MB-231 2.65 µM | MDA-N 2.7 µM | NCI-H226 2.85 µM | OVCAR-3 2.36 µM | SF-268 1.44 µM | SK-OV-3 3.54 µM | SNB-19 4.01 µM | SNB-75 1.66 µM | SW-620 1.49 µM | T47D 1.61 µM | U-251 2.18 µM
active: MOLT-4 0.533 µM | RXF 393 0.923 µM

COC(=O)c1ccccc1Nc1ccccc1C(=O)OC
inactive: CAKI-1 > 100 µM | HL-60 > 100 µM | HT-29 91.2 µM | LOX IMVI 56.1 µM | MDA-MB-231 65.2 µM | MDA-N > 100 µM | MOLT-4 > 100 µM | NCI-H226 23.7 µM | OVCAR-3 79.6 µM | RXF 393 68.7 µM | SF-268 54.2 µM | SK-OV-3 > 100 µM | SNB-19 > 100 µM | SNB-75 39.3 µM | SW-620 > 100 µM | T47D 44.2 µM | U-251 83.6 µM

O=C(Nc1ccc(Cl)cc1)C(=O)C(C(=O)c1ccccc1-c1ccccc1)C1OC(=O)c2ccccc21 (stereo unspecified)
inactive: CAKI-1 24 µM | HL-60 18.5 µM | HT-29 23.1 µM | LOX IMVI 14.6 µM | M19-MEL 19.4 µM | MOLT-4 29.4 µM | NCI-H226 6.34 µM | RXF 393 11.6 µM | SF-268 21.3 µM | SK-OV-3 27.6 µM | SNB-19 16.6 µM | SNB-75 31.4 µM | SNB-78 > 100 µM | SW-620 22.4 µM | U-251 14 µM

O=C(N/C=C1\C(=O)Oc2ccccc2C1=O)NC1CCCCC1
inactive: HL-60 40 µM | HT-29 > 100 µM | LOX IMVI 85.3 µM | M19-MEL 73.5 µM | MOLT-4 62.7 µM | NCI-H226 41.1 µM | RXF 393 19.9 µM | SF-268 41.2 µM | SNB-19 42.7 µM | SNB-78 22.9 µM | SW-620 98.4 µM

O/N=C1/CCCCC1NO (stereo unspecified)
inactive: CAKI-1 > 100 µM | HL-60 > 100 µM | HT-29 > 100 µM | LOX IMVI > 100 µM | MDA-MB-231 > 100 µM | MDA-N > 100 µM | MOLT-4 > 100 µM | NCI-H226 > 100 µM | OVCAR-3 > 100 µM | RXF 393 > 100 µM | SF-268 > 100 µM | SK-OV-3 > 100 µM | SNB-19 > 100 µM | SNB-75 > 100 µM | SW-620 > 100 µM | T47D > 100 µM | U-251 > 100 µM

CC(=O)O[C@H]1C[C@]2(C)C(CCC3O[C@@]32C)[C@@]2(CC(c3ccoc3)OC2O)[C@@H]1C (stereo partly specified)
inactive: CAKI-1 > 100 µM | HL-60 21.6 µM | HT-29 75.9 µM | LOX IMVI 78.3 µM | MDA-MB-231 > 100 µM | MDA-N > 100 µM | MOLT-4 29.6 µM | NCI-H226 > 100 µM | OVCAR-3 60.7 µM | RXF 393 > 100 µM | SF-268 > 100 µM | SK-OV-3 > 100 µM | SNB-19 > 100 µM | SNB-75 > 100 µM | SW-620 > 100 µM | T47D 39.3 µM | U-251 > 100 µM

O=S(=O)(O)c1ccc(/N=N\c2ccc(/N=N\c3ccc(/C=C/c4ccc(/N=[N+](/[O-])c5ccc(/C=C/c6ccc(/N=N/c7ccc(/N=N\c8ccc(S(=O)(=O)O)cc8)cc7)cc6S(=O)(=O)O)c(S(=O)(=O)O)c5)cc4S(=O)(=O)O)c(S(=O)(=O)O)c3)cc2)cc1
inactive: HL-60 > 100 µM | HOP-18 > 100 µM | HT-29 > 100 µM | LOX IMVI > 100 µM | M19-MEL > 100 µM | MOLT-4 > 100 µM | NCI-H226 > 67.8 µM | OVCAR-3 > 100 µM | RXF 393 > 100 µM | SF-268 > 100 µM | SK-OV-3 > 100 µM | SNB-19 > 100 µM | SNB-75 69.7 µM | SW-620 > 100 µM | U-251 > 100 µM
